US7709451B2, “Method and composition for treating immune complex associated disorders” (Trustees of Boston University, priority 1997, dated 2010)
“Also recorded” adds a separate entry of the source.

How the values were obtained:
[1] = test system: AM14 RF+ B cells; assay: RF+ B cell proliferation (3[H]-thymidine incorporation); assay type: cell-based, mouse; settings: for Inhibition of RF+ B cell response to mAb PL2-3 / chromatin-containing IC: FIGS. 5A-5C
Experimental: Cell culture and reagents. Spleen cell preparations were T-depleted and cultured with the appropriate ligands for 40-48 hrs. In some experiments, B cells were preincubated with CD40L as described (Rifkin, et al., J. Immunol. 165, 1626-1633 (2000)). Proliferation was assessed by ^3[H]-thymidine incorporation during the final 16 hours of culture. Data are presented as the mean percentage of the anti-IgM response from triplicate cultures. The percentage of the anti-IgM response was calculated according to the formula: [(cpm experimental condition−cpm CD40L alone)/(cpm anti-IgM−cpm CD40L alone)×100].
In some experiments, DNase I (type IV) (Sigma, St. Louis, Mo.), chloroquine (Sigma), concanamycin B, bafilomycin A (Sigma), or 12 μg/ml of the inhibitory CpG S-ODN 2008 (Lenart, et al., Antisense Nucleic Acid Drug Dev. 4, 247-256 (2001)) (Oligo's Etc.) were added to the cultures 15-30 min-2 hr before the addition of the ligands.

[2] = in vivo; cited from earlier work
[3] = test system: RF+ MyD88−/− B cells; assay: Proliferation of RF+ MyD88-/- B cells; assay type: cell-based, mouse; settings: FIG. 4C
Experimental: To investigate the potential role of TLRs in mediating RF+ B cell responses to autoantibody/autoantigen IC, we crossed the AM14 transgenes onto a MyD88−/− background (Adachi, et al., Immunity 9, 143-150 (1998)). B cells from RF− MyD88+/+ (wildtype), RF+ MyD88+/+, and RF+ MyD88−/− offspring, identified by a combination of PCR and FACS analysis (FIGS. 4A-4B), were assessed for their ability to respond to anti-IgM, CpG ODN, and LPS, as well as to a panel of anti-nucleosome mAbs and autoimmune sera.
Mice. […] Complement receptor genotype was determined by flow cytometry using the FITC-conjugated 7G6 antibody (Pharmingen, San Diego, Calif.). MyD88 genotype was determined by PCR using the primers: MyD88F (5′-TGGCATGCCTCCATCATAGTTAACC-3′) [SEQ ID NO: 1], MyD88R (5′-GTCAGAAACAACCACCACCATGC-3′) [SEQ ID NO: 2], and neoR (5′-ATCGCCTTCTATCGCCTTCTTGACG-3′) [SEQ ID NO: 3] […]
Cell culture and reagents. […] Proliferation was assessed by ^3[H]-thymidine incorporation during the final 16 hours of culture. […] The percentage of the anti-IgM response was calculated according to the formula: [(cpm experimental condition−cpm CD40L alone)/(cpm anti-IgM−cpm CD40L alone)×100].

[4] = test system: dendritic cells from C57BL/6 mice lacking the Fc receptor γ chain; assay: Dendritic cell TNF-α production, Fc receptor γ chain deficient mice; assay type: cell-based, mouse; settings: Table 2, Fc receptor γ chain deficient dendritic cells; 48 hours
Experimental: (§1) Dendritic cells were generated from the bone marrow of C57BL/6 wildtype mice and from C57BL/6 mice lacking the Fc receptor γ chain in by in vitro culture of the bone marrow cells with GM-CSF and IL-4 for 6 days. On day 6, the CD11c positive dendritic cells were isolated using magnetic beads. The stimulatory ODN 1826 (3 μg/ml), that specifically activates through TLR9, lipopolysaccharide (LPS, 10 μg/ml), the anti-chromatin antibodies PL2-3 (50 μg/ml; IgG2a) and PL2-8 (50 μg/ml; IgG2b), two different antibody/protein ratios of α-TNP/TNP-BSA immune complexes (50 μg/ml), or the culture medium only (media), was then added to the dendritic cell cultures. After 48 hours, levels of TNF-α in the culture supernatants was measured by ELISA (results shown as pg/ml; lower level of sensitivity of assay is 50 pg/ml). A representative experiment of 2 similar experiments is shown.

[5] = test system: CD11c positive dendritic cells from bone marrow of C57BL/6 mice; assay: Dendritic cell activation (TNF-α and IL-12 ELISA, CD86 flow cytometry); assay type: cell-based, mouse; settings: for TNF-α in culture supernatants (ELISA): 48 hours
Experimental: Dendritic cells were generated from the bone marrow of C57BL/6 mice by in vitro culture with GM-CSF and IL-4 for 6 days. On day 6, the CD11c positive dendritic cells were isolated using magnetic beads (Miltenyi Biotec) and either pre-incubated, or not pre-incubated, for 30 minutes with ODN 2088, an inhibitory oligodeoxynucleotide that specifically blocks signaling through TLR9. The stimulatory ODN 1826 (CpG, 3 μg/ml), that specifically activates through TLR9, or lipopolysaccharide (LPS, 10 μg/ml), that activates through TLR4, or culture medium only (media), was then added to the cultures. After 48 hours, levels of TNF-α (8A) and IL-12 (8B) in the culture supernatants were measured by ELISA (results shown as OD units determined by absorption at 405 nm). After removal of the supernatants, cells were collected and analyzed by flow cytometry for expression of the co-stimulatory molecule CD86 (8c). Unstimulated refers to the level of expression of CD86 in the presence of media alone, whereas stimulated refers to the level of expression of CD86 in the presence of the stimulus (ODN 1826 or LPS).
Dendritic cells were generated from the bone marrow of C57BL/6 mice by in vitro culture with GM-CSF and IL-4 for 6 days. On day 6, the CD11c positive dendritic cells were isolated using magnetic beads (Miltenyi Biotec). The dendritic cells were then either pre-incubated, or not pre-incubated, for 30 minutes with ODN 2088 at 12 μg/ml. The stimulatory ODN 1826 (3 μg/ml), that specifically activates through TLR9, lipopolysaccharide (LPS, 10 μg/ml), that activates through TLR4, the anti-chromatin antibody PL2-3 (50 μg/ml), three different antibody/protein ratios of α-TNP/TNP-BSA immune complexes (50 μg/ml), or the culture medium only (media), was then added to the cultures. After 48 hours, levels of TNF-α in the culture supernatants was measured by ELISA (results shown as pg/ml; lower level of sensitivity of assay is 50 pg/ml). A representative experiment of 3 similar experiments is shown.
as §1

[6] = Table 1, column 2088: pre-incubated 30 minutes with ODN 2088 at 12 μg/ml
[7] = Table 1, column None: no ODN 2088 pre-incubation, lower level of sensitivity 50 pg/ml
[8] = Table 2, wildtype C57BL/6 dendritic cells

Cl.N [ammonium chloride]
Inhibition of RF+ B cell response to mAb PL2-3 / chromatin-containing IC [1]: inhibited

CO/C1=C\C(C)=C\[C@@H](C)[C@@H](O)[C@@H](C)C/C(C)=C/C=C/[C@H](OC)[C@@H]([C@@H](C)[C@@H](O)[C@H](C)[C@@]2(O)C[C@@H](O)[C@H](C)[C@@H](C(C)C)O2)OC1=O [bafilomycin A]
Inhibition of RF+ B cell response to mAb PL2-3 / chromatin-containing IC [1]: inhibited

CCN(CC)CCCC(C)Nc1ccnc2cc(Cl)ccc12 (stereo not drawn) [chloroquine]
Treatment of autoimmune diseases including rheumatoid arthritis and SLE [2]: effective treatment
Inhibition of RF+ B cell response to mAb PL2-3 / chromatin-containing IC [1]: completely blocked; also recorded: inhibited
Inhibition of proliferative response to stimulatory CpG S-ODN 1826 ([1]; TLR9 ligand): inhibited

C/C=C/[C@H]1O[C@@](O)([C@@H](C)[C@H](O)[C@H](C)[C@H]2OC(=O)/C(OC)=C/C(C)=C/[C@@H](C)[C@@H](O)[C@@H](CC)[C@@H](O)[C@H](C)C/C(C)=C/C=C/[C@@H]2OC)C[C@@H](O[C@H]2C[C@@H](O)[C@H](OC(N)=O)[C@@H](C)O2)[C@@H]1C [concanamycin A]
Inhibition of RF+ B cell response to mAb PL2-3 / chromatin-containing IC [1]: completely blocked

C/C=C/[C@H]1O[C@@](O)([C@@H](C)[C@H](O)[C@H](C)[C@H]2OC(=O)/C(OC)=C/C(C)=C/[C@@H](C)[C@@H](O)[C@@H](C)[C@@H](O)[C@H](C)C/C(C)=C/C=C/[C@@H]2OC)C[C@@H](O[C@H]2C[C@@H](O)[C@H](OC(N)=O)[C@@H](C)O2)[C@@H]1C [concanamycin B]
Inhibition of RF+ B cell response to mAb PL2-3 / chromatin-containing IC [1]: inhibited

DNase
Effect of DNase on RF+ B cell proliferative response to anti-nucleosome mAb PL2-3 or autoimmune serum ([1]; DNase added to assay medium (FIG. 1)): dramatically reduced
Effect of DNase on responses to F(ab')2 anti-IgM and LPS ([1]; FIG. 1, nonspecific toxicity control): unaffected

ODN 1826
Proliferative response of B cells from RF+ MyD88-deficient mice [3]: unable to respond
TNF-α in culture supernatants (ELISA) [4]: 2373 pg/mL
Cytokine production by dendritic cells ([5]; 3 μg/ml, 48 hours (FIGS. 8A, 8B)): induces TNF-α and IL-12 production
Co-stimulatory molecule (CD86) expression on dendritic cells ([5]; FIG. 8C): induces upregulation of co-stimulatory molecules
TNF-α in culture supernatants (ELISA) [5, 6]: <50 pg/mL
TNF-α in culture supernatants (ELISA) [5, 7]: 2347 pg/mL
TNF-α in culture supernatants (ELISA) [5, 8]: 7899 pg/mL

lipopolysaccharide [LPS]
Proliferative response of B cells from RF+ MyD88-deficient mice [3]: responded only weakly
TNF-α in culture supernatants (ELISA) [4]: 3411 pg/mL
TNF-α in culture supernatants (ELISA) [5, 6]: 2393 pg/mL
TNF-α in culture supernatants (ELISA) [5, 7]: 2514 pg/mL
TNF-α in culture supernatants (ELISA) [5, 8]: 7056 pg/mL
